Patent publication US20240239790A1, “7-Morpholino-1,6-Naphthyridin-5-yl Derivatives and Pharmaceutical Compositions Thereof Useful as DNA-PK Inhibitor” (adMare Therapeutics Society, priority 2021, published 2024)
Where two headings read alike, the source gives them in different places.

Experiments:
[1] = system: pH2AX induction in HCT116 ATM-/- multicellular tumour spheroids; assay: Prodrug Radiation Sensitization in Multicellular Tumour Spheroids, inhibition of pH2AX induction following radiation; type: cell-based; settings: Homo sapiens, HCT-116, 20 Gy
Outline: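 HCT116 and FaDu spheroids (~0.5 mm diameter), ATM-deficient lines included, in MEM/10% FBS/10 mM glucose at 37 °C under 20% vs 5% oxygen with stirring. Prodrugs 10 μM down to 3.5 nM, 20 Gy irradiation. pDNA-PK (ser 2056) or pH2AX (ser 139) scored in formalin-fixed cryosections 1 or 2 h post-radiation.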

[2] = target: T1, DNA-PK phosphorylation at Serine 2056 (Homo sapiens, UniProt P78527); assay: Cellular Assay for Inhibition of DNA-PK Phosphorylation at Serine 2056 in FaDu cells (sandwich ELISA, neocarzinostatin); type: cell-based; settings: pSer2056 DNA-PK, Table 3
T1 construct: FaDu cells were purchased from ATCC; host or cells: FaDu
Outline: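 FaDu cells pre-treated with compound (0.3% DMSO) for 1 h, then neocarzinostatin 1 μg/mL final added for 2 h to induce DSBs. Protein-normalised lysates read by sandwich ELISA for total and pSer2056 DNA-PK; % inhibition normalised between DMSO and NCS controls, IC50 from variable-slope log(inhibitor) fit.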

FaDu cell line = assay: Prodrug Activation in Hypoxic Stirred Tumour Cell Suspensions; settings: 10 μM, 4 hours
Method: Prodrug compounds were assayed to determine their stability and rate of activation in stirred cell suspensions under 0.2 vs 5% oxygen. Compounds were diluted 1:1000 from DMSO stocks to 10 μM final concentration in tumour cell suspensions (1% by cell volume) in MEM media containing 10% FBS, 10 mM glucose & 3.7 g/L sodium bicarbonate. Cell lines assayed included A253, A549, Detroit562, FaDu, HCT116, HEP G2, HT29, SCC25, SCC9, SiHa & TC32. Compounds and cells were then incubated for 4 hours under constant mixing at 37° C. under 5% CO2 and either 0.2 or 5% O2. Following the incubation period cellular activation of the compounds was assayed via MeOH extraction and HPLC quantification.

[3] = 5% O2, inner layers, read-out: Prodrug 5% O2 Inner layers EC50
[4] = 5% O2, outer layers, read-out: Prodrug 5% O2 Outer layers EC50
[5] = 20% O2, outer layers, read-out: Prodrug 20% O2 Outer layers EC50

Row | SMILES | IC50 [2] [µM] | Fraction of prodrug converted to active form, Hypoxic 0.2% O2 (FaDu cell line) | Fraction of prodrug converted to active form, Oxic 5% O2 (FaDu cell line) | EC50 [1, 3] [µM] | EC50 [1, 4] [µM] | EC50 [1, 5] [µM]
1 | CC(c1cnc([N+](=O)[O-])n1C)N(c1cnc2cc(N3CCOCC3)nc(O[C@H]3CC[C@@H](Nc4ncc(OCCN5CCOCC5)cn4)CC3)c2c1)S(C)(=O)=O (stereo partly drawn) [LFA2054, N-[1-(3-methyl-2-nitro-imidazol-4-yl)ethyl]-N-[7-morpholino-5-[4-[[5-(2-morpholinoethoxy)pyrimidin-2-yl]amino]cyclohexoxy]-1,6-naphthyridin-3-yl]methanesulfonamide] | 10 to 30 | B (B is 0.05 to 0.15) | D (D is 0 to 0.02) | 0.01 to 0.5 | 0.5 to 1 | 10 to 100
2 | CC(c1cnc([N+](=O)[O-])n1C)N(c1cnc2cc(N3CCOCC3)nc(O[C@H]3CC[C@@H](Nc4ncc(N5CCN(C)CC5)cn4)CC3)c2c1)S(C)(=O)=O (stereo partly drawn) [LFA2070, N-[1-(3-methyl-2-nitro-imidazol-4-yl)ethyl]-N-[5-[4-[[5-(4-methylpiperazin-1-yl)pyrimidin-2-yl]amino]cyclohexoxy]-7-morpholino-1,6-naphthyridin-3-yl]methanesulfonamide] | 10 to 30 | B (B is 0.05 to 0.15) | D (D is 0 to 0.02) | 0.01 to 0.5 | 1 to 10 | 10 to 100
3 | Cn1c(CN(c2cnc3cc(N4CCOCC4)nc(O[C@H]4CC[C@@H](Nc5cncc(C(F)(F)F)n5)CC4)c3c2)S(C)(=O)=O)cnc1[N+](=O)[O-] [LFA2101, N-[(3-methyl-2-nitro-imidazol-4-yl)methyl]-N-[7-morpholino-5-[4-[[6-(trifluoromethyl)pyrazin-2-yl]amino]cyclohexoxy]-1,6-naphthyridin-3-yl]methanesulfonamide] | 10 to 30 | C (C is 0.02 to 0.05) | D (D is 0 to 0.02) | 10 to 100 | 10 to 100 | 10 to 100
4 | COc1cccnc1N[C@H]1CC[C@@H](Oc2nc(N3CCOCC3)cc3ncc(N(Cc4cnc([N+](=O)[O-])n4C)S(C)(=O)=O)cc23)CC1 [LFA2009, N-[5-[4-[(3-methoxy-2-pyridyl)amino]cyclohexoxy]-7-morpholino-1,6-naphthyridin-3-yl]-N-[(3-methyl-2-nitro-imidazol-4-yl)methyl]methanesulfonamide] | 10 to 30 | B (B is 0.05 to 0.15) | C (C is 0.02 to 0.05) | 1 to 10 | 1 to 10 | 1 to 10
5 | Cc1cc(C#N)nc(N[C@H]2CC[C@@H](Oc3nc(N4CCOCC4)cc4ncc(OCc5cnc([N+](=O)[O-])n5C)cc34)CC2)n1 [LFA2093, 6-methyl-2-[[4-[[3-[(3-methyl-2-nitro-imidazol-4-yl)methoxy]-7-morpholino-1,6-naphthyridin-5-yl]oxy]cyclohexyl]amino]pyrimidine-4-carbonitrile] | 10 to 30 | B (B is 0.05 to 0.15) | B (B is 0.05 to 0.15) | 1 to 10 | 1 to 10 | 1 to 10
6 | Cn1c(COc2cnc3cc(N4CCOCC4)nc(O[C@H]4CC[C@@H](Nc5cncc(C(F)(F)F)n5)CC4)c3c2)cnc1[N+](=O)[O-] [LFA2097, N-[4-[[3-[(3-methyl-2-nitro-imidazol-4-yl)methoxy]-7-morpholino-1,6-naphthyridin-5-yl]oxy]cyclohexyl]-6-(trifluoromethyl)pyrazin-2-amine] | 10 to 30 | C (C is 0.02 to 0.05) | D (D is 0 to 0.02) | 10 to 100 | 10 to 100 | 10 to 100
7 | Cc1nc(N[C@H]2CC[C@@H](Oc3nc(N4CCOCC4)cc4ncc(N(Cc5cnc([N+](=O)[O-])n5C)S(C)(=O)=O)cc34)CC2)ccc1F [LFA2011, N-[5-[4-[(5-fluoro-6-methyl-2-pyridyl)amino]cyclohexoxy]-7-morpholino-1,6-naphthyridin-3-yl]-N-[(3-methyl-2-nitro-imidazol-4-yl)methyl]methanesulfonamide] | 10 to 30 | C (C is 0.02 to 0.05) | D (D is 0 to 0.02) | 1 to 10 | 1 to 10 | 1 to 10
8 | CN(C)Cc1cnc(N[C@H]2CC[C@@H](Oc3nc(N4CCOCC4)cc4ncc(OCc5cnc([N+](=O)[O-])n5C)cc34)CC2)nc1 [LFA2086, 5-[(dimethylamino)methyl]-N-[4-[[3-[(3-methyl-2-nitro-imidazol-4-yl)methoxy]-7-morpholino-1,6-naphthyridin-5-yl]oxy]cyclohexyl]pyrimidin-2-amine] | 10 to 30 | D (D is 0 to 0.02) | D (D is 0 to 0.02) | 1 to 10 | 1 to 10 | 1 to 10
9 | CC(c1cnc([N+](=O)[O-])n1C)N(c1cnc2cc(N3CCOCC3)nc(O[C@H]3CC[C@@H](Nc4ncc(OCCN5CCN(C)CC5)cn4)CC3)c2c1)S(C)(=O)=O (stereo partly drawn) [LFA2060, N-[1-(3-methyl-2-nitro-imidazol-4-yl)ethyl]-N-[5-[4-[[5-[2-(4-methylpiperazin-1-yl)ethoxy]pyrimidin-2-yl]amino]cyclohexoxy]-7-morpholino-1,6-naphthyridin-3-yl]methanesulfonamide] | 10 to 30 | A (A is 0.15 to 1) | D (D is 0 to 0.02) | 0.5 to 1 | 1 to 10 | 10 to 100

Second part, led by results:

Row | IC50 [2] [µM] | Fraction of prodrug converted to active form, Hypoxic 0.2% O2 (FaDu cell line) | Fraction of prodrug converted to active form, Oxic 5% O2 (FaDu cell line) | SMILES | EC50 [1, 3] [µM] | EC50 [1, 4] [µM] | EC50 [1, 5] [µM]
10 | 10 to 30 | B (B is 0.05 to 0.15) | B (B is 0.05 to 0.15) | Cc1cc(C)nc(N[C@H]2CC[C@@H](Oc3nc(N4CCOCC4)cc4ncc(OCc5cnc([N+](=O)[O-])n5C)cc34)CC2)n1 [LFA2081, 4,6-dimethyl-N-[4-[[3-[(3-methyl-2-nitro-imidazol-4-yl)methoxy]-7-morpholino-1,6-naphthyridin-5-yl]oxy]cyclohexyl]pyrimidin-2-amine] | 0.5 to 1 | 1 to 10 | 1 to 10
11 | 10 to 30 | D (D is 0 to 0.02) | D (D is 0 to 0.02) | Cn1c(CN(c2cnc3cc(N4CCOCC4)nc(OC4CCC(Nc5ncc(N6CCN(CC(F)(F)F)CC6)cn5)CC4)c3c2)S(C)(=O)=O)cnc1[N+](=O)[O-] (stereo not drawn) [LFA2045, N-[(3-methyl-2-nitro-imidazol-4-yl)methyl]-N-[7-morpholino-5-[4-[[5-[4-(2,2,2-trifluoroethyl)piperazin-1-yl]pyrimidin-2-yl]amino]cyclohexoxy]-1,6-naphthyridin-3-yl]methanesulfonamide] | 1 to 10 | 1 to 10 | 1 to 10
12 | 1 to 10 | B (B is 0.05 to 0.15) | D (D is 0 to 0.02) | CN1CCN(CCOc2cnc(N[C@H]3CC[C@@H](Oc4nc(N5CCOCC5)cc5ncc(N(Cc6cnc([N+](=O)[O-])n6C)S(C)(=O)=O)cc45)CC3)nc2)CC1 [LFA2059, N-[(3-methyl-2-nitro-imidazol-4-yl)methyl]-N-[5-[4-[[5-[2-(4-methylpiperazin-1-yl)ethoxy]pyrimidin-2-yl]amino]cyclohexoxy]-7-morpholino-1,6-naphthyridin-3-yl]methanesulfonamide] | 1 to 10 | 1 to 10 | 1 to 10
13 | 1 to 10 | A (A is 0.15 to 1) | B (B is 0.05 to 0.15) | Cn1ncc(CN(c2cnc3cc(N4CCOCC4)nc(O[C@H]4CC[C@@H](Nc5ncccn5)CC4)c3c2)S(C)(=O)=O)c1[N+](=O)[O-] [LFA2057, N-[(1-methyl-5-nitro-pyrazol-4-yl)methyl]-N-[7-morpholino-5-[4-(pyrimidin-2-ylamino)cyclohexoxy]-1,6-naphthyridin-3-yl]methanesulfonamide] | 0.01 to 0.5 | 0.01 to 0.5 | 1 to 10
14 | 1 to 10 | B (B is 0.05 to 0.15) | B (B is 0.05 to 0.15) | CC(c1cnn(C)c1[N+](=O)[O-])N(c1cnc2cc(N3CCOCC3)nc(O[C@H]3CC[C@@H](Nc4ncc(N5CCN(C)CC5)cn4)CC3)c2c1)S(C)(=O)=O (stereo partly drawn) [LFA2067, N-[1-(1-methyl-5-nitro-pyrazol-4-yl)ethyl]-N-[5-[4-[[5-(4-methylpiperazin-1-yl)pyrimidin-2-yl]amino]cyclohexoxy]-7-morpholino-1,6-naphthyridin-3-yl]methanesulfonamide] | 0.01 to 0.5 | 0.5 to 1 | 1 to 10
